Data taken from patent publication US11339161B2, “Triazolo pyridines as modulators of gamma-secretase” (Boehringer Ingelheim International GmbH, priority 2017, dated 2022).
Read-outs that look alike come from different tables or passages of the source.

How the values were obtained:
FGFR1 = FGFR1 (Homo sapiens, UniProt P11362); assay: Z'-LYTE SelectScreen biochemical kinase assay FGFR1
From the text: (§1) Thermo Fisher Scientific SelectScreen™ Biochemical Kinase Profiling Service Z′-LYTE™ Screening Protocol and Assay Conditions Assay Theory
(§2) The […] biochemical assay employs a fluorescence-based, coupled-enzyme format and is based on the differential sensitivity of phosphorylated and non-phosphorylated peptides to proteolytic cleavage. The peptide substrate is labeled with two fluorophores—one at each end—that make up a FRET pair. In the primary reaction, the kinase transfers the gamma-phosphate of ATP to a single tyrosine, serine or threonine residue in a synthetic FRET-peptide. In the secondary reaction, a site-specific protease recognizes and cleaves non-phosphorylated FRET-peptides. Phosphorylation of FRET-peptides suppresses cleavage by the Development Reagent. Cleavage disrupts FRET between the donor (i.e., coumarin) and acceptor (i.e., fluorescein) fluorophores on the FRET-peptide, whereas uncleaved, phosphorylated FRET-peptides maintain FRET. A ratiometric method, which calculates the ratio (Emission Ratio=Coumarin emission (445 nm)/Fluorescein emission (520 nm)) of donor emission to acceptor emission after excitation of the donor fluorophore at 400 nm, is used to quantitate reaction progress, as shown in the equation below. A significant benefit of this ratiometric method for quantitating reaction progress is the elimination of well-to-well variations in FRET-peptide concentration and signal intensities. As a result, the assay yields very high Z′-factor values (>0.7) at a low percent phosphorylation. Both cleaved and uncleaved FRET-peptides contribute to the fluorescence signals and therefore to the Emission Ratio. The extent of phosphorylation of the FRET-peptide can be calculated from the Emission Ratio. The Emission Ratio will remain low if the FRET-peptide is phosphorylated (i.e., no kinase inhibition) and will be high if the FRET-peptide is non-phosphorylated (i.e., kinase inhibition).
(§3) The Test Compounds are screened in 1% DMSO (final) in the well. For 10 point titrations, 3-fold serial dilutions are conducted from the starting concentration of the customer's choosing.
(§4) All Peptide/Kinase Mixtures are diluted to a 2× working concentration in the appropriate Kinase Buffer (see section Kinase Specific Assay Conditions for a complete description).
(§5) All ATP Solutions are diluted to a 4× working concentration in Kinase Buffer (50 mM HEPES pH 7.5, 0.01% BRIJ-35, 10 mM MgCl2, 1 mM EGTA). ATP Km apparent is previously determined using a Z″-LYTE assay.
(§6) The Development Reagent is diluted in Development Buffer (see section Kinase-Specific Assay Conditions—Direct and Cascade for a complete description).
(§7) Bar-coded Corning, low volume NBS, black 384-well plate (Corning Cat. #4514) • 1. 100 nL—100× Test Compound in 100% DMSO • 2. 2.4 μL—Kinase buffer • 3. 5 μL—2× Peptide/Kinase Mixture • 4. 2.5 μL—4×ATP Solution • 5. 30—second plate shake • 6. 60—minute Kinase Reaction incubation at room temperature • 7. 5 μL—Development Reagent Solution • 8. 30—second plate shake • 9. 60—minute Development Reaction incubation at room temperature • 10. Read on fluorescence plate reader and analyze the data Z′-LYTE Assay Controls
(§8) SelectScreen Kinase Profiling Service uses XLfit from IDBS. The dose response curve is curve fit to model number 205 (sigmoidal dose-response model).
(§9) The 2×FGFR1/Tyr 04 mixture is prepared in 50 mM HEPES pH 7.5, 0.01% BRIJ-35, 10 mM MgCl2, 4 mM MnCl2, 1 mM EGTA, 2 mM DTT. The final 10 μL Kinase Reaction consists of 0.44-2.45 ng FGFR1 and 2 μM Tyr 04 in 50 mM HEPES pH 7.5, 0.01% BRIJ-35, 10 mM MgCl2, 2 mM MnCl2, 1 mM EGTA, 1 mM DTT. After the 1 hour Kinase Reaction incubation, 5 μL of a 1:64 dilution of Development Reagent B is added.

KDR (VEGFR2) = KDR (VEGFR2) (Homo sapiens, UniProt P35968); assay: Z'-LYTE SelectScreen biochemical kinase assay KDR (VEGFR2)
KDR (VEGFR2), sequence (P35968 20-1356): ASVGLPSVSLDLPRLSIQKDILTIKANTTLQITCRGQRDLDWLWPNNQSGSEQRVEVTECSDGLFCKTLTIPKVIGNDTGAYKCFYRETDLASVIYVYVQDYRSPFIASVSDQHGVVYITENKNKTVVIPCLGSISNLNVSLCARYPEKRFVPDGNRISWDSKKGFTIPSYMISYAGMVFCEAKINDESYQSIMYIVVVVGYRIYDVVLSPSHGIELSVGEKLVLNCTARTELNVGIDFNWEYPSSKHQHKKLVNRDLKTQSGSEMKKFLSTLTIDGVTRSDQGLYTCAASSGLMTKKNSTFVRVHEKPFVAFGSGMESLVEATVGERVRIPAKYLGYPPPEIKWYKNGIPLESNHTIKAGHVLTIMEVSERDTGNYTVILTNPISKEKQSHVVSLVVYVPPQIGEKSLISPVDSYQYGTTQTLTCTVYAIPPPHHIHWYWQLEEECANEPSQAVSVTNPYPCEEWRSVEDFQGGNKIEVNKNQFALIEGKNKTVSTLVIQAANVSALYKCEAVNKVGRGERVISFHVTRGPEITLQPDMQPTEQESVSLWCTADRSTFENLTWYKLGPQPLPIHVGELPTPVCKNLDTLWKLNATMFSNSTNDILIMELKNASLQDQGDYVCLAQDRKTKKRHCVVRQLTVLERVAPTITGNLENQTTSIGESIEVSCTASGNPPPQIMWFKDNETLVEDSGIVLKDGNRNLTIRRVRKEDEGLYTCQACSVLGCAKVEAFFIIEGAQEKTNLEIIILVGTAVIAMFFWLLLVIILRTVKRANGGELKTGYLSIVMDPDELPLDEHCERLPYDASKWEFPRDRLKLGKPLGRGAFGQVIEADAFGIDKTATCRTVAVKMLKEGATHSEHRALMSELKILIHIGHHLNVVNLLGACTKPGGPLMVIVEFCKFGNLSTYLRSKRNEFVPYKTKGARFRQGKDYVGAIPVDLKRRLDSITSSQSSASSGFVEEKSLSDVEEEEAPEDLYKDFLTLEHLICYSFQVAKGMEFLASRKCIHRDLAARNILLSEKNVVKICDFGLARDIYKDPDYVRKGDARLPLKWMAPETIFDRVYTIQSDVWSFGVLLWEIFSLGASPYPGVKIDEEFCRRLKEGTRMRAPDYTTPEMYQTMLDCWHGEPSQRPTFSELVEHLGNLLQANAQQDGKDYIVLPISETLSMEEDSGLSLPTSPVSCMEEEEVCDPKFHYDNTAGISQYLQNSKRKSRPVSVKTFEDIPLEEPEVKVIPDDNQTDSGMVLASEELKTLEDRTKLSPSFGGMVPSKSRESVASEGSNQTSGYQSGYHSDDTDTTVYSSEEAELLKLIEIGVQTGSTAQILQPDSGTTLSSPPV
From the text: as §1, §2, §3, §4, §5, §6, §7, §8
(§10) The 2×KDR (VEGFR2)/Tyr 01 mixture is prepared in 50 mM HEPES pH 7.5, 0.01% BRIJ-35, 10 mM MgCl2, 1 mM EGTA. The final 10 μL Kinase Reaction consists of 1-30 ng KDR (VEGFR2) and 2 μM Tyr 01 in 50 mM HEPES pH 7.5, 0.01% BRIJ-35, 10 mM MgCl2, 1 mM EGTA. After the 1 hour Kinase Reaction incubation, 5 μL of a 1:256 dilution of Development Reagent B is added.

PDGFRA (PDGFR alpha) = PDGFRA (PDGFR alpha) (Homo sapiens, UniProt P16234); assay: Z'-LYTE SelectScreen biochemical kinase assay PDGFRA (PDGFR alpha)
PDGFRA (PDGFR alpha), sequence (P16234 24-1089): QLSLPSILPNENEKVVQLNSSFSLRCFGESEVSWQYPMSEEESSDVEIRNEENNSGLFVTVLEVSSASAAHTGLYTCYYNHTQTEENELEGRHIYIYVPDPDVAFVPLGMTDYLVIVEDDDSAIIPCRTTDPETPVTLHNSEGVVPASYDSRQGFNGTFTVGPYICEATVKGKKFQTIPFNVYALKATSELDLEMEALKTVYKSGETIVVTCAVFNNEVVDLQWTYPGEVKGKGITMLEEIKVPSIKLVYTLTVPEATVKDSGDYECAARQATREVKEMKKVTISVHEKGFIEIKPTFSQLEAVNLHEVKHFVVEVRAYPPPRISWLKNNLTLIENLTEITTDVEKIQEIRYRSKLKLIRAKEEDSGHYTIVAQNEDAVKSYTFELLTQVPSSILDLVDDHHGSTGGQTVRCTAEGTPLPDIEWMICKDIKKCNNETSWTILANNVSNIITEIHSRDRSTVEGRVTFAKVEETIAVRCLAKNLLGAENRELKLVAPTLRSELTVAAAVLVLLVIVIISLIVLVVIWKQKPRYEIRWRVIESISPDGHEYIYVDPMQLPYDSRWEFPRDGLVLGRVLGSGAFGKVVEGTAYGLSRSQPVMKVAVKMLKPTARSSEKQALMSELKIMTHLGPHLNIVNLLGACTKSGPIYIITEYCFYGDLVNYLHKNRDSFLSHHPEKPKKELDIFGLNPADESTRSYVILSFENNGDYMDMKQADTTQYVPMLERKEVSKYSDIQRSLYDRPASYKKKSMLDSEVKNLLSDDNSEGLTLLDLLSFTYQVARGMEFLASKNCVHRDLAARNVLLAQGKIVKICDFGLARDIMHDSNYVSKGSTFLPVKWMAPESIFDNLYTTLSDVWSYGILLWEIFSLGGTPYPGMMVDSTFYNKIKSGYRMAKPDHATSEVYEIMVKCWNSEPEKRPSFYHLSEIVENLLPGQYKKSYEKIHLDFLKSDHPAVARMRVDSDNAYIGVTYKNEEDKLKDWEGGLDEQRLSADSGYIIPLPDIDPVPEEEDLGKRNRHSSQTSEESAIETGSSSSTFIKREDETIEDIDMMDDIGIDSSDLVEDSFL
From the text: as §1, §2, §3, §4, §5, §6, §7, §8
as §9, with “2×PDGFRA (PDGFR alpha)/Tyr” for “2×FGFR1/Tyr”, “1.54-22.6” for “0.44-2.45”, “PDGFRA (PDGFR alpha)” for “FGFR1”

PTK2 (FAK) = PTK2 (FAK) (Homo sapiens, UniProt Q05397); assay: Z'-LYTE SelectScreen biochemical kinase assay PTK2 (FAK)
PTK2 (FAK), sequence (Q05397 whole entry): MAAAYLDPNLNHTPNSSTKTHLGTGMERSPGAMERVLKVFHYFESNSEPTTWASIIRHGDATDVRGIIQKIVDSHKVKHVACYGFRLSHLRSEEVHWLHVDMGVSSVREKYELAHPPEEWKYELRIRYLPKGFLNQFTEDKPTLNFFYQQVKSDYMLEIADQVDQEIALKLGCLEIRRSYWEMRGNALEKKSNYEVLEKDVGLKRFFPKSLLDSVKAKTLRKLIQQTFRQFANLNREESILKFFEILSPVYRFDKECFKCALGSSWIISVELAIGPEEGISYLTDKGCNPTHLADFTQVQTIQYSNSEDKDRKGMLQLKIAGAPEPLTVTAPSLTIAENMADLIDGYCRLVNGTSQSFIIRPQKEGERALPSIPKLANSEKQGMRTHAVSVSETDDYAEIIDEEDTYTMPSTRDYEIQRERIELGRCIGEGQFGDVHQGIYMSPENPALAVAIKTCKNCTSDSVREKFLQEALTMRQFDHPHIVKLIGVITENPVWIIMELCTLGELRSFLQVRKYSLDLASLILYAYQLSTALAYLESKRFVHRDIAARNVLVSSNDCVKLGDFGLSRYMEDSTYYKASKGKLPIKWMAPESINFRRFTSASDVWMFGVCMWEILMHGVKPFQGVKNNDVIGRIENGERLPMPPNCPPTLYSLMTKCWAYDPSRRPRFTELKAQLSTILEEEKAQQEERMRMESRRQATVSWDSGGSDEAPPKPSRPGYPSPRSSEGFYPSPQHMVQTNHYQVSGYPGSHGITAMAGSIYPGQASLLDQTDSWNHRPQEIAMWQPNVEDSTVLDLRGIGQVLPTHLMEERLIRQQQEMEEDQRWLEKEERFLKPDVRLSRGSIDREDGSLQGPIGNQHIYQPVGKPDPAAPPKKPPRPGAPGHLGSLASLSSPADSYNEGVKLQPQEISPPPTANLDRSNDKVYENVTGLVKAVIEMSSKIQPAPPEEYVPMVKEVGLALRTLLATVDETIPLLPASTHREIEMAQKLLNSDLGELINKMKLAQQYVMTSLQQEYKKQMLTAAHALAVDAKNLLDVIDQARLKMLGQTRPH
From the text: as §1, §2, §3, §4, §5, §6, §7, §8
as §10, with “The 2×PTK2 (FAK)/Tyr 07” for “The 2×KDR (VEGFR2)/Tyr 01”, “of 12.5-100” for “of 1-30”, “ng PTK2 (FAK)” for “ng KDR (VEGFR2)”, “Tyr 07” for “Tyr 01”, “a 1:16” for “a 1:256”

[1] = 10 μmolar compound concentration, ATP at Km app, read-out: FGFR1 inhibition
[2] = read-out: % Inhibition mean FGFR1
[3] = 10 μmolar compound concentration, ATP at Km app, read-out: KDR (VEGFR2) inhibition
[4] = read-out: % Inhibition mean KDR (VEGFR2)
[5] = 10 μmolar compound concentration, ATP at Km app, read-out: PDGFRA (PDGFR alpha) inhibition
[6] = read-out: % Inhibition mean PDGFRA (PDGFR alpha)
[7] = 10 μmolar compound concentration, ATP at Km app, read-out: PTK2 (FAK) inhibition
[8] = read-out: % Inhibition mean PTK2 (FAK)

FGFR1, sequence (P11362 22-822): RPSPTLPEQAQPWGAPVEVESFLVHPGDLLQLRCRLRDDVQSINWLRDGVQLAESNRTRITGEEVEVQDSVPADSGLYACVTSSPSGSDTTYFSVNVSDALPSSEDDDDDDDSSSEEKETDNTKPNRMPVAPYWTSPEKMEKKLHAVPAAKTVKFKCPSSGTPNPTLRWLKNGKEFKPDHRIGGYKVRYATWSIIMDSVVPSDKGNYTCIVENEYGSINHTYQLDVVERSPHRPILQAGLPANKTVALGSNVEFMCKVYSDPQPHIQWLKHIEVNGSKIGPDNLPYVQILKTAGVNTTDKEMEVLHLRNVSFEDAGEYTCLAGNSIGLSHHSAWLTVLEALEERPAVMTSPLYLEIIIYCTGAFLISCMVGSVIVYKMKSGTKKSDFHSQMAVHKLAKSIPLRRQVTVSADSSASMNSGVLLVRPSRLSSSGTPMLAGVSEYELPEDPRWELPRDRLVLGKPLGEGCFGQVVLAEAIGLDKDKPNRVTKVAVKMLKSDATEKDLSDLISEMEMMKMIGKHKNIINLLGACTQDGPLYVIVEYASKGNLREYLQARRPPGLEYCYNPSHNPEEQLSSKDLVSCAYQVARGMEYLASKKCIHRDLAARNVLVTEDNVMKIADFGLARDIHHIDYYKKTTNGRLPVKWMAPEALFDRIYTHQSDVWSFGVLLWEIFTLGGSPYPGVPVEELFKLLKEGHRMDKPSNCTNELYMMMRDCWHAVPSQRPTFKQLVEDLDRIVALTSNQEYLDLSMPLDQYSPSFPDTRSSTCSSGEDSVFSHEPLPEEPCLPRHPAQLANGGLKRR

inhibition at 10 µM (FGFR1; [1]) | inhibition at 10 µM (FGFR1; [2]) | inhibition at 10 µM (KDR (VEGFR2); [3]) | inhibition at 10 µM (KDR (VEGFR2); [4]) | inhibition at 10 µM (PDGFRA (PDGFR alpha); [5]) | inhibition at 10 µM (PDGFRA (PDGFR alpha); [6]) | inhibition at 10 µM (PTK2 (FAK); [7]) | inhibition at 10 µM (PTK2 (FAK); [8]) | inhibition at 10 µM (FGFR1; read-out: % Inhibition mean) | inhibition at 10 µM (KDR (VEGFR2); read-out: % Inhibition mean) | inhibition at 10 µM (PDGFRA (PDGFR alpha); read-out: % Inhibition mean) | inhibition at 10 µM (PTK2 (FAK); read-out: % Inhibition mean) | Structure (SMILES)
< 40% | 15% | < 40% | 2% | < 40% | 18% | < 40% | 16% | – | – | – | – | CCn1ncc2c1CC[C@@H](Nc1nc3c(-c4ccc(F)c(Cl)c4)cccn3n1)C2 [Example R-61, (R)-[8-(3-Chloro-4-fluoro-phenyl)-[1,2,4]triazolo[1,5-a]pyridine-2-yl]-(1-ethyl-4,5,6,7-tetrahydro-1H-indazol-5-yl)-amine]
< 40% | 20% | < 40% | 6% | < 40% | 21% | < 40% | 15% | – | – | – | – | CCn1ncc2c1CCC(Nc1nc3c(-c4ccccc4C)cccn3n1)C2 (stereo not shown) [Example 56, (1-Ethyl-4,5,6,7-tetrahydro-1H-indazol-5-yl)-[8-(2-methyl-phenyl)-[1,2,4]triazolo[1,5-a]pyridine-2-yl]-amine]
< 40% | 15% | < 40% | -3% | < 40% | 16% | < 40% | 19% | – | – | – | – | CCCn1ncc2c1CCC(Nc1nc3c(-c4ccc(F)cc4C)cccn3n1)C2 (stereo not shown) [Example 43, [8-(4-fluoro-2-methyl-phenyl)-[1,2,4]triazolo[1,5-a]pyridine-2-yl]-(1-propyl-4,5,6,7-tetrahydro-1H-indazol-5-yl)-amine]
< 40% | 18% | < 40% | 2% | < 40% | 19% | < 40% | 24% | – | – | – | – | CCn1nc(Cl)c2c1CCC(Nc1nc3c(-c4ccc(F)cc4C)cccn3n1)C2 (stereo not shown) [Example 48, (3-Chloro-1-ethyl-4,5,6,7-tetrahydro-1H-indazol-5-yl)-[8-(4-fluoro-2-methyl-phenyl)-[1,2,4]triazolo[1,5-a]pyridine-2-yl]-amine]
> 80% | – | > 80% | – | > 80% | – | > 80% | – | 99% | 99% | 86% | 101% | CC1(C)C(=O)Nc2ccc(Nc3nc4c(-c5cccc(F)c5)cccn4n3)cc21 [Cpd. 263 in WO09155551, reference compound]
< 40% | 9% | < 40% | 8% | < 40% | 29% | < 40% | 32% | – | – | – | – | CCn1ncc2c1C(C)CC(Nc1nc3c(-c4cc(F)c(F)c(F)c4)cccn3n1)C2 (stereo not shown) [Example 49, (1-Ethyl-7-methyl-4,5,6,7-tetrahydro-1H-indazol-5-yl)-[8-(3,4,5-trifluoro-phenyl)-[1,2,4]triazolo[1,5-a]pyridine-2-yl]-amine]
< 40% | 5% | < 40% | -10% | < 40% | 14% | < 40% | 27% | – | – | – | – | CCn1nnc2c1CCC(Nc1nc3c(-c4ccc(F)cc4C)cccn3n1)C2 (stereo not shown) [Example 51, (1-Ethyl-4,5,6,7-tetrahydro-1H-benzotriazol-5-yl)-[8-(4-fluoro-2-methyl-phenyl)-[1,2,4]triazolo[1,5-a]pyridine-2-yl]-amine]
< 40% | 21% | < 40% | 3% | < 40% | 25% | < 40% | 24% | – | – | – | – | CCCCn1ncc2c1CCC(Nc1nc3c(-c4ccc(F)cc4C)cccn3n1)C2 (stereo not shown) [Example 46, [8-(4-fluoro-2-methyl-phenyl)-[1,2,4]triazolo[1,5-a]pyridine-2-yl]-(1-butyl-4,5,6,7-tetrahydro-1H-indazol-5-yl)-amine]
